Reference: patent publication US20070197599A1, “HYDROXYLAMINES AND DERIVATIVES AS ANTI-ANGIOGENIC AGENTS” (priority 2006, published 2007)
Where two headings read alike, the source gives them in different places.

Key:
[1] = tested on: selenite induced cataract; conditions: mice; cited from earlier work
lens endothelial cells = conditions: in vitro; Sasaki et al., 1998; cited from earlier work
mouse V79 cells = conditions: Mitchell et al., 2000; cited from earlier work
[2] = tested on: H2O2-induced angiogenesis in the CAM model; assay: H2O2-induced angiogenesis in the chick chorioallantoic membrane (CAM) model; format: in vivo; conditions: for inhibition at 88 µM: Gallus gallus
Description: Neovascularization was examined by previously described methods (see references at the end of Example 5). Ten-day-old fertilized chicken eggs were incubated at 37° C. with 55% relative humidity. In the dark with the help of candling lamp and using a hypodermic needle a small hole was punctured in the shell covering the air sac. A second hole was punctured on the wider side of the egg above an avascular area of the embryonic membrane. An artificial air sac was created below the second hole by applying gentle vacuum to the first hole using a small rubber squeeze bulb. The vacuum caused the separation of chorioallantoic membrane (CAM) from the shell. An approximately 1.0 cm^2 widow was cut in the shell over the dropped CAM with the use of a mini drill. The underlying CAM was accessed through this small window.
Filter disks were punched using a small puncher from filter paper #1 (Whatman International, United Kingdom). Filter disks were soaked in 3 mg/ml cortisone acetate solution (95% ethanol and water) and air-dried under sterile condition. For inducing angiogenesis, sterile filter disks were saturated with bFGF (1 μg/ml) or other pro-angiogenesis factors and control disks were saturated with PBS without Calcium and Magnesium.
Using sterile forceps one filter/CAM was placed from the window. The window was sealed with Highland brand transparent tape. After 24 hr, 10-25 µl of test agent (inhibitor) was injected intravenously or added topically into the CAM membrane of bFGF or other pro-angiogenesis factors stimulated CAMs. • Control filter disks received PBS without Calcium and Magnesium. • After 48 hr, CAM tissue directly beneath filter disk was harvested and placed in a 35-mm Petri dish. Eight-Ten eggs/treatment group was used.
A pro-angiogenic agent (see Examples, below) was added to induce new blood vessel branches on the CAM of 10-day old embryos. Sterile disks of #1 filter paper (Whatman International, United Kingdom) were pre-treated with 3 mg/ml cortisone acetate, and air dried under sterile conditions. The disks were then suspended in PBS (Phosphate Buffered Saline) and placed on growing CAMs. Filters treated with TPH (TEMPOL-H) or TEMPOL and/or H2O2 or TPH and/or bFGF or VEGF were placed on the first day of the 3-day incubation.
Digital Images and Microscopic analysis of CAM sections: CAM sections from Petri dish were examined using SV6 stereomicroscope (Karl Zeiss) at 50× magnification. Digital images were captured using a 3-CCD color video camera system (Toshiba America, New York, N.Y.). These images were analyzed using Image-Pro Plus software (Media Cybernetics). The number of branch points in blood vessels within the circular region superimposed to the area of a filter disk was counted for each section. After incubation at 37° C. with 55% relative humidity for 3 days, the CAM tissue directly beneath each filter disk was resected from control and treated CAM samples. Tissues were washed three times with PBS. Sections were placed in a 35-mm Petri dish (Nalge Nunc; Rochester, N.Y.) and were examined under a SV6 stereomicroscope (Karl Zeiss; Thornwood, N.Y.) at 50× magnification. Digital images of CAM sections adjacent to filters were collected using a 3-CCD color video camera system (Toshiba America; New York, N.Y.) and analyzed with the Image-Pro Plus software (Media Cybernetics; Silver Spring, Md.). The number of vessel branch points contained in a circular region equal to the area of a filter disk was counted for each section. Percent inhibition data are expressed as the quotient of the experimental value minus the negative control value divided by the difference between the positive control value and the negative control value. One image was counted in each CAM preparation, and findings from eight CAM preparations were analyzed for each treatment condition. In addition, each experiment was performed three times. […]

CC1(C)CC(O)CC(C)(C)N1[O] [TEMPOL, 4-hydroxy-2,2,6,6-tetramethylpiperidine-N-oxyl radical, reference compound]
prevention of selenite induced cataract [1]: not effective
prevention of X-ray radiation damage to lens endothelial cells (lens endothelial cells): prevented X-ray radiation damage
radioprotection of mouse V79 cells (mouse V79 cells): concentration dependent
inhibition of angiogenesis induced by super-maximal concentrations of H2O2 ([2]; CAM model, Tables 1A and 1B): effectively inhibited
inhibition at 88 µM ([2]; read-out: % Inhibition ± SD, H2O2 (88 μM, 30 ng) + 100 μg test agent): 32.1 ± 14.1%
inhibition at 88 µM ([2]; read-out: % Inhibition ± SD, H2O2 (88 μM, 30 ng) + 200 μg test agent): 32.5 ± 12.1%
inhibition at 88 µM ([2]; read-out: % Inhibition ± SD, H2O2 (88 μM, 30 ng) + 400 μg test agent): 30.1 ± 8.7%
inhibition at 88 µM ([2]; read-out: % Inhibition ± SD, H2O2 (88 μM, 30 ng) + 800 μg test agent): 60.9 ± 3.2%
